Peptide text beside a SMILES is read from it.
What was measured:
Ad-TSHR-immunized mice = experiment: anti-TSHR antibody titers in serum of treated Ad-TSHR-immunized mice (3rd generation ELISA, inhibition of M22 binding to TSHR); assay type: in vivo, BALB/c mice; conditions: 1 mg/kg IV at 4-weekly intervals, after start of therapy despite continuing immunisations
Protocol: The measurements were carried out in Ad-TSHR-immunized mice treated by either 4-weekly injections with vehicle (0.9% NaCl, “Graves' no therapy”, n=25 mice), or administrations of 1 mg/kg body weight of peptide of the invention 836 (12 mice), or of peptide 829 (13 mice), or of TSHR-Fc (18 mice), or of control peptide 835 (13 mice). In addition, age-matched immunologically naïve unimmunized mice (“healthy”, 19 animals) were investigated. Data are represented as mean±SEM. Significance over time was tested by analysis of variance (ANOVA) of groups at given time points, and controlled by ANOVA for repeated measurements within one group, followed by LSD post-hoc testing. *p<0.05, and **p<0.005, compared to the TSHR-immunized group treated with only NaCl (“Graves' no therapy”).
Animals were kept under standard housing conditions (23±2° C., 55±10% RH) in groups of ten animals in GR1800DD cages (Tecniplast®). […] All guidelines for care of animals were respected. Mice received 10^10 plaque-forming units (pfu) of adenovirus carrying the A-subunit of the TSHR gene. […]
(§1) Anti-TSHR autoantibody titers and potency of antibodies to stimulate TSHR-dependent cAMP levels in test cells were determined before start of immunisation (basal value), 56 days after first immunisation, 133 days after first immunisation, and 189 days after first immunisation, and at the end of experiment.

[1] = system: immunologically naïve mice; experiment: tolerability and immunogenicity study in immunologically naive mice; conditions: for clinical findings / tolerability: 1 mg/kg bw IV, monthly administrations for 6 months
Protocol: BALB/c mice were adapted for at least one week to start experiments at the age of 12 weeks. Animals were kept as described before. […] Peptides (either 1 mg/kg body weight or NaCl vehicle control) were given by IV injection into a tail vein of these naïve mice (n=5 per group), and then continued at 4-weekly intervals for 6 months, as described before for the therapeutic study in immunized mice. Serum samples were taken at identical intervals.
1) “3rd generation assay”: Antibodies against TSHR were detected by a commercially available 3rd generation enzyme immunoassay provided by RSR Limited, Avenue Park, Pentwyn, Cardiff, U.K., in which the of the human Graves patient-derived M22 monoclonal antibody and serum antibodies compete for binding sites on immobilized TSHR. […] The assay was performed using 30 μl 1:10 (PBS) diluted serum in at least double determination according to the manufacturer's instructions.

[2] = assay type: physicochemical
Text: Peptide 836 is a 24-meric cyclic peptide corresponding to the eighth TSHR LRD loop, and peptide 829 (also 24-meric) to the first loop of the TSHR LRD.

[3] = system: CHO cells expressing the human TSHR; experiment: capacity of serum anti-TSHR antibodies from treated mice to stimulate cAMP in test cells; parameters: species or system BALB/c mice; conditions: serum of in vivo treated Ad-TSHR-immunized mice, 1 mg/kg IV 4-weekly
Protocol: The measurements were carried out in Ad-TSHR-immunized mice treated by either 4-weekly injections with vehicle (0.9% NaCl, “Graves' no therapy”, n=25 mice), or administrations of 1 mg/kg body weight of peptide of the invention 836 (12 mice), or of peptide 829 (13 mice), or TSHR-Fc (18 mice), or of control peptide 835 (13 mice). In addition, age-matched immunologically naïve unimmunized mice (“healthy”, 19 animals) were investigated. Data are represented as mean±SEM. Differences between groups were tested by AVOVA followed by post hoc LSD testing.**p<0.005 compared to the TSHR-immunized group treated with only NaCl (“Graves' no therapy”). […]
as §1, with “experiment. […]” for “experiment.”
2) Thyroid stimulating antibodies in the serum of hyperthyroid mice were analysed by measuring cyclic adenosine monophosphate (cAMP) generation in Chinese hamster ovary (CHO) cells JP2626 expressing the human TSHR (kindly provided by Dr. Gilbert Vassart, Brussels, Belgium). […]

| Compound | time course of anti-TSHR antibody titers (Ad-TSHR-immunized mice) | clinical findings / tolerability [1] | solubility in water [2] | maximum TSHR-dependent cAMP levels induced in test cells by mouse serum [3] | anti-TSHR antibody titers in naive mice ([1]; 1 mg/kg IV monthly, 6 month observation period) | naive mice with anti-TSHR antibody titers above cut-off limit ([1]; 1 mg/kg IV, after 3 administrations) |
| --- | --- | --- | --- | --- | --- | --- |
| CC[C@H](C)[C@@H]1NC(=O)[C@H](C(C)C)NC(=O)[C@H]([C@@H](C)O)NC(=O)[C@H](CC(C)C)NC(=O)[C@H](Cc2ccc(O)cc2)NC(=O)[C@H](CCCCN)NC(=O)[C@H](CC(N)=O)NC(=O)[C@H](CCCCN)NC(=O)[C@H](CC(N)=O)NC(=O)[C@H](CC(C)C)NC(=O)[C@H](Cc2ccc(O)cc2)NC(=O)[C@H](C(C)C)NC(=O)[C@H](C)NC(=O)[C@H](CC(=O)O)NC(=O)[C@H](CC(C)C)NC(=O)[C@H](CCCCN)NC(=O)[C@H]([C@@H](C)O)NC(=O)CNC(=O)[C@H](CC(N)=O)NC(=O)[C@H](Cc2ccccc2)NC(=O)[C@H](C)NC(=O)[C@H](Cc2ccc(O)cc2)NC(=O)CNC(=O)[C@H](CC(=O)O)NC1=O [peptide 836] (cyclo(GYAFNGTKLDAVYLNKNKYLTVID)) | no trends for further anti-TSHR titer increases after start of therapy | no pathological clinical findings were observed | easily soluble in water |  |  |  |
| TSHR-Fc: fusion protein: first 289 amino acids of human TSH receptor (A-subunit), GGR linker and Fc portion of human IgG2 | no trends for further anti-TSHR titer increases after start of therapy | developed clinical signs of allergy immediately after 4 administrations |  | not affected | significantly (p<0.001) higher than in cyclic peptide-treated or vehicle-treated control mice | 3 out of 6 |
| SPPCECHQEEDFRVTCKDIQRIPS [peptide 829] |  |  | easily soluble in water | not significantly different from controls |  |  |

Source: patent publication US11459375B2, “Cyclic peptides for the treatment of Graves' disease” (advanceCOR GmbH, priority 2017, dated 2022)
